Assay results reported in patent US20250064774A1, “FORMULATIONS AND METHODS OF MAKING AND USING THE SAME” (AraVai Global LLC, priority 2021, published 2025).

System: skin of the intrascapular regions of the back
Test: Repeat insult patch test under occlusive conditions (induction and challenge)
Conditions: positive control
From the text: The raw material ingredients to be tested under occlusive conditions were placed on an 8-millimeter aluminum Finn Chamber® (Epitest Ltd. Oy, Tuusula, Finland) supported on Scanpor® Tape (Norgesplaster A/S, Kristiansand, Norway) or an 8-millimeter filter paper coated aluminum Finn Chamber® AQUA supported on a thin flexible transparent polyurethane rectangular film coated on one side with a medical grade acrylic adhesive, consistent with adhesive used in state-of-the-art hypoallergenic surgical tape or a 7 mm IQ-ULTRA® closed cell system which is made of additive-free polyethylene plastic foam with a filter paper incorporated. It is supplied in units of 10 chambers on a hypoallergenic non-woven adhesive tape; the width of the tape is 52 mm and the length is 118 mm or other equivalents. […]
Approximately 0.02-0.05 mL for liquid materials and/or 0.02-0.05 g for solid materials of the test material was used for the study. […] Prior to each reapplication, the test sites evaluated by trained laboratory personnel. […] Test sites were evaluated by trained laboratory personnel 48 and 96 hours after application. In the event of an adverse reaction, the area of erythema and edema were measured. […] Subjects were instructed to report any delayed reactions that might occur after the final reading. […]

CCCCCCCCCCCCOS(=O)(=O)[O-].[Na+] [2.0% Sodium Lauryl Sulfate Solution, Sodium Lauryl Sulfate]
subjects with a Grade 1 reaction: ten
subjects with a Grade 4 reaction: one
